Patent publication US20080305186A1, “Method and Composition for the Treatment of Cardiac Hypertrophy” (BOARD OF REGENTS, THE UNIVERSITY OF TEXAS SYSTEM, priority 2007, published 2008)

Tested on: cardiac gene expression
Experiment: Microarray analysis of cardiac gene expression (GeneChip Mouse Genome 430 2.0)
Type: in vivo, mice
Experimental: Microarray Sample Preparation and Analysis. Animal hearts were rapidly removed, and the atria and right ventricles were cut and immediately plunged into TRIzol Reagent (Life Technologies). Total RNA was isolated following the manufacturer's instructions, purified by phenol-chloroform extraction and then ethanol precipitation, and 20 μg further processed for microarray analysis. Briefly, cDNA synthesis, in vitro transcription, and labeling and fragmentation to produce the oligonucleotide probes were performed as instructed by the GeneChip manufacturer (Affymetrix). The probes were first hybridized to a test array (Affymetrix) and then to the GeneChip Mouse Genome 430 2.0 Array, using the GeneChip Hybridization Oven 640. The chips were washed in a GeneChip Fluidics Station 450 (Affymetrix), and the results were visualized with a GeneChip G7 scanner (Affymetrix). RMA normalization, pairwise comparisons, Student's t test and Benjamini and Hochberg correction were subsequently performed using GeneSifter (VizX Labs, Seattle, Wash.) and Spotfire DecisionSite 8.3 (Spotfire, Inc., Somerville, Mass.).
Effects on Gene Expression Profile. […] One mouse heart was used for each array, and was performed in triplicate, generating a total of 12 arrays. GeneSifter was used to perform RMA normalization, pairwise comparisons of averaged signal intensity values, and Student's t-test with Benjamini and Hochberg correction, and Spotfire was used to perform pairwise comparisons. […] Additionally, genes that were altered between any two N or cardiac hypertrophy samples were removed, as these alterations most likely represented normal variations between mice.

[1] = heart, drug + isoproterenol vs isoproterenol only
[2] = mouse heart, vs isoproterenol only (CH), CH vs normal 1.6
[3] = mouse heart, vs isoproterenol only (CH), CH vs normal 1.7
[4] = mouse heart, vs isoproterenol only (CH), CH vs normal 1.8
[5] = mouse heart, vs isoproterenol only (CH), CH vs normal 1.9
[6] = mouse heart, vs isoproterenol only (CH), CH vs normal 2.0
[7] = mouse heart, vs isoproterenol only (CH), CH vs normal 2.1
[8] = mouse heart, vs isoproterenol only (CH), CH vs normal 2.2
[9] = mouse heart, vs isoproterenol only (CH), CH vs normal 2.3
[10] = mouse heart, vs isoproterenol only (CH), CH vs normal 2.4
[11] = mouse heart, vs isoproterenol only (CH), CH vs normal 2.5
[12] = mouse heart, vs isoproterenol only (CH), CH vs normal 2.6
[13] = mouse heart, vs isoproterenol only (CH), CH vs normal 2.7
[14] = mouse heart, vs isoproterenol only (CH), CH vs normal 2.9
[15] = mouse heart, vs isoproterenol only (CH), CH vs normal 3.0
[16] = mouse heart, vs isoproterenol only (CH), CH vs normal 3.1
[17] = mouse heart, vs isoproterenol only (CH), CH vs normal 3.2

C[C@H]1c2cccc(O)c2C(=O)C2=C(O)[C@]3(O)C(=O)C(C(N)=O)=C(O)[C@@H](N(C)C)[C@@H]3[C@@H](O)[C@@H]21 [doxycycline]
FC EGF, latrophilin seven transmembrane domain containing 1 (Eltd1) (GenBank NM_133222, vs mice given only isoproterenol): −1.7
FC ERBB receptor feedback inhibitor 1 (Errifi1) (GenBank NM_133753, vs mice given only isoproterenol): −2.7
FC F-box only protein 31 (Fboxo31) (GenBank NM_133765, vs mice given only isoproterenol): −2.4
FC Ras homolog gene family, member U (Arhu) (Rhou) (GenBank NM_133955, vs mice given only isoproterenol): −2.5
FC Peroxisomal biogenesis factor 12 (Pex12) (GenBank NM_134025, vs mice given only isoproterenol): −2.4
FC PHD finger protein 21A (Phf21a) (GenBank NM_138755, vs mice given only isoproterenol): 2.1
FC Glutamate-ammonia ligase (Glu1) (GenBank U09114, vs mice given only isoproterenol): −3.5
FC Gem GTPase (Gem) (GenBank U10551, vs mice given only isoproterenol): −2.8
FC P19-protein tyrosine phosphatase (Ptpn12) (GenBank X63440, vs mice given only isoproterenol): −1.5
Cyclin G2 (Ccng2), Microarray FC [1]: −3.1 FC
Cyclin-dependent kinase inhibitor 1A (p21) (Cdkn1a), Microarray FC [1]: −6.5 FC
Cytokine inducible SH2-containing protein 3 (Socs3), Microarray FC [1]: −4.9 FC
DNA-damage-inducible transcript 4 (Ddit4), Microarray FC [1]: −5.6 FC
GATA binding protein 4 (Gata4), Microarray FC [1]: 2.7 FC
Gem GTPase (Gem), Microarray FC [1]: −2.8 FC
Lipocalin 2 (Lcn2), Microarray FC [1]: −13.3 FC
Matrix metalloproteinase 3 (Mmp3), Microarray FC [1]: −2.9 FC
Metallothionein 1 (MT2), Microarray FC [1]: −5.5 FC
NADPH oxidase 4 (Nox4), Microarray FC [1]: −3.2 FC
Oncostatin receptor (Osmr), Microarray FC [1]: −2.6 FC
Phospholipase A2 group VII (platelet-activating factor acetylhydrolase, plasma) (Pla2g7), Microarray FC [1]: −2.2 FC
S100 calcium binding protein A8 (calgranulin A) (S100a8), Microarray FC [1]: −19.9 FC
S100 calcium binding protein A9 (calgranulin B) (S100a9), Microarray FC [1]: −14.0 FC
SET and MYND domain containing 1 (Smyd1), Microarray FC [1]: 2.7 FC
Serine protease inhibitor 2-2 (Spi2-2) (Serpin3n), Microarray FC [1]: −9.7 FC
Transformation related protein 53 inducible nuclear protein 1 (Trp53inp1), Microarray FC [1]: −3.5 FC
Tubulin, alpha 4 (Tuba4), Microarray FC [1]: 5.8 FC
FC Ankyrin repeat domain 47 (Ankrd47), C79906 [2]: −2.0 fold
FC Procollagen, type IV, alpha 1 (Col4a1), AW536690 [2]: −2.4 fold
FC cDNA, AV293532 [3]: −1.5 fold
FC cDNA, BG073457 [3]: −1.9 fold
FC cDNA, BI689897 [3]: −1.8 fold
FC AT rich interactive domain 5B (Mrf1 like) (Arid5b), BB079486 [4]: −2.0 fold
FC Actin binding LIM protein family, member 3 (Ablim3), BB667786 [4]: −2.4 fold
FC Chloride intracellular channel 5 (Circ5), AA210377 [4]: −1.7 fold
FC Fatty acid binding protein 4, adipocyte (Fabp4), BC002148 [4]: −2.1 fold
FC cDNA, AK005293 [4]: −1.8 fold
FC cDNA, BM215139 [4]: −1.7 fold
FC Chitinase 3-like 3; chitinase 3-like 4, AY065557 [5]: −2.4 fold
FC cDNA, BI683916 [5]: −2.6 fold
FC Casitas B-lineage lymphoma b (Cblb), AV276986 [6]: −1.7 fold
FC Choline kinase (Chk), NM_013490 [6]: −1.9 fold
FC Coiled-coil domain containing 85A (Ccdc85a), AW060797 [6]: −2.0 fold
FC Transglutaminase 2, C polypeptide (Tgm2), AW321975 [6]: −1.8 fold
FC cDNA, AV228737 [6]: −2.1 fold
FC cDNA, BB447627 [6]: −1.6 fold
FC Adenosine deaminase (Ada), NM_007398 [7]: −2.4 fold
FC CXC chemokine (angie2) (Cxcl13), AF030636 [7]: −2.2 fold
FC EST, AV032095 [7]: −1.8 fold
FC EST, BE630073 [7]: −2.0 fold
FC cDNA, AI788755 [7]: −2.3 fold
FC cDNA, BB431047 [7]: −2.2 fold
FC Angiogenin, ribonuclease A family, member 1 (Ang1), AI385586 (mouse heart, vs isoproterenol only (CH), CH vs normal 2.1, second AI385586 line): −1.6 fold
FC Amine oxidase, copper containing 3 (Aoc3), NM_009675 [8]: −2.4 fold
FC CD14 antigen (CD14), NM_009841 [8]: −2.0 fold
FC Cyclin G2 (Ccng2), U95826 [8]: −2.5 fold
FC Flavin containing monooxygenase 1 (Fmo1), BC011229 [8]: −2.0 fold
FC RAN binding protein 9 (Ranbp9), mRNA., NM_019930 [8]: −2.3 fold
FC cDNA, BB408123 [8]: −2.0 fold
FC cDNA, BB769119 [8]: −2.2 fold
FC cDNA, BG075321 [8]: −2.5 fold
FC cDNA, BG919470 [8]: −2.0 fold
FC A disintegrin-like and metallopeptidase (reprolysin type) with thrombospondin (ADAMTS)-like 2 (Adamtsl2), AK020831 [9]: −1.8 fold
FC CCAATenhaer binding protein (CEBP), beta (Cebpb), NM_009883 [9]: −1.9 fold
FC cDNA, BB248249 [9]: −2.1 fold
FC cDNA, BB258019 [9]: −2.3 fold
FC cDNA, BB272245 [9]: −1.6 fold
FC cDNA, BC003209 [9]: −2.1 fold
FC cDNA, BF466929 [9]: −2.8 fold
FC Apical protein, Xenopus laevis-like (Apx1), BQ176992 [10]: −1.7 fold
FC Purine-nucleoside phosphorylase (Pnp), BC003788 [10]: −2.0 fold
FC cDNA, BB398891 [10]: −2.2 fold
FC cDNA, BC027342 [10]: −2.8 fold
FC ATP-binding cassette, sub-family G (WHITE), member 2 (Abcg2), NM_011920 [11]: −1.7 fold
FC Angiogenin, ribonuclease A family, member 1 (Ang1), NM_007447 [11]: −2.1 fold
FC ESTs, AI447357 [11]: −2.5 fold
FC cDNA, BB787946 [11]: −2.3 fold
FC cDNA, BE956940 [11]: −2.2 fold
FC cDNA, BG065702 [11]: −2.5 fold
FC Casitas B-lineage lymphoma b (Cblb), BB205662 [12]: −2.1 fold
FC Cysteine proteinase cathepsin L (Ctsl), J02583 [12]: −2.1 fold
FC Dipeptidase 1 (Dpep1), NM_007876 [12]: −2.3 fold
FC Fc fragment of IgG, low affinity IIIa, receptor (Fcrl3), BC027310 [12]: −2.7 fold
FC cDNA, AV234245 [12]: −1.8 fold
FC cDNA, AW552579 [12]: −2.4 fold
FC Bcl2-like (Bcl211), BM228788 [13]: −1.9 fold
FC Ceruloplasmin (Cp), NM_007752 [13]: −1.7 fold
FC G7e protein, NM_033075 [13]: −2.2 fold
FC Mitogen activated protein kinase kinase kinase 8 (Map3k8), NM_007746 [13]: −3.0 fold
FC cDNA, BB200607 [13]: −2.7 fold
FC cDNA, BC019553 [13]: 1.7 fold
FC cDNA, BG071024 [13]: −2.8 fold
FC cDNA, BQ174442 [13]: −2.2 fold
FC cDNA, AV365503 (mouse heart, vs isoproterenol only (CH), CH vs normal 2.8, first AV365503 line): −3.0 fold
FC Carbonic anhydrase 4 (Car4), NM_007607 (mouse heart, vs isoproterenol only (CH), CH vs normal 2.8, second NM_007607 line): −4.3 fold
FC ChaC, cation transport regulator-like 1 (Chac1), BC025169 [14]: −2.6 fold
FC Decorin (Dcn), AV321547 [14]: −2.0 fold
FC Glycoprotein (transmembrane) nmb (Gpnmb), NM_053110 [14]: −2.0 fold
FC cDNA, BC004065 [14]: −3.1 fold
FC cDNA, BC020080 [14]: −3.4 fold
FC Amyotrophic lateral sclerosis 2 (juvenile) chromosome region, candidate 13 (Als2cr13), AV326938 [15]: −1.6 fold
FC Chromodomain protein, Y chromosome-like (Cdyl), NM_009881 [15]: −2.0 fold
FC C-type lectin domain family 1, member a (Clec1a), BB035924 [16]: −2.2 fold
FC Casitas B-lineage lymphoma b (Cblb), AW545867 [16]: −2.1 fold
FC Prostaglandin D synthetase (Ptdgs), AB006361 [16]: −2.3 fold
FC cDNA, AA939619 [16]: −3.1 fold
FC cDNA, AI790538 [16]: −2.0 fold
FC Carbonic anhydrase 4 (Car4), NM_007607 (mouse heart, vs isoproterenol only (CH), CH vs normal 3.1, first NM_007607 line): −5.2 fold
FC cDNA, AV365503 (mouse heart, vs isoproterenol only (CH), CH vs normal 3.1, second AV365503 line): −2.8 fold
FC CUB and zona pellucida-like domains 1 (Cuzd1), NM_008411 [17]: −1.7 fold
FC Chemokine (C—C motif) ligand 6 (Cc16) (MRP-1), BC002073 [17]: −1.9 fold
FC G7e protein, BC027314 [17]: −3.1 fold
FC Serine (or cysteine) peptidase inhibitor, clade A, member 3G (Serpina3g), BC002065 [17]: −3.6 fold
FC cDNA, AV084904 [17]: −1.7 fold
FC cDNA, AV369812 [17]: −2.5 fold
FC cDNA, BB829165 [17]: −3.1 fold
FC cDNA, BG297038 [17]: −3.3 fold
FC cDNA, NM_133898 [17]: −3.3 fold
FC Angiogenin, ribonuclease A family, member 1 (Ang1), AI385586 (mouse heart, vs isoproterenol only (CH), CH vs normal 3.2, first AI385586 line): −2.1 fold
FC Pyruvate dehydrogenase kinase 4 (Pdk4), NM_013743 (mouse heart, vs isoproterenol only (CH), CH vs normal 3.3): −3.1 fold
